Laboratory results from BindingDB's records for doi:10.1021/jm00159a032 (1986).

Biological target: Thymidylate synthase (Streptococcus faecium)
Assay: Inhibitory activity against thymidylate synthase of Streptococcus faecium

IC50: 5.5 nM
SMILES: C#CN(Cc1ccc2nc(N)[nH]c(=O)c2c1)c1ccc(C(=O)NC(CCC(=O)NC(CCC(=O)NC(CCC(=O)O)C(=O)O)C(=O)O)C(=O)O)cc1 (stereo unspecified) [4-[4-(4-{4-[(2-Amino-4-hydroxy-quinazolin-6-ylmethyl)-ethynyl-amino]-benzoylamino}-4-carboxy-butyrylamino)-4-carboxy-butyrylamino]-4-carboxy-butyric acid anion]
